Laboratory results as given in paper PMC11089506 (Journal of Medicinal Chemistry, 2024).
Where a name gives a salt, the structure may show the parent alone. Read-outs that look alike come from different tables or passages of the source.

Tests used:
human 5-HT2BR = biological target: T1, human 5-HT2BR (Homo sapiens, UniProt P41595); assay: [125I]DOI competition binding assay
T1 construct: host or cells: HEK293 (membrane homogenates)
Description: (§1) Following incubation, the samples were filtered rapidly under vacuum through glass fiber filters (GF/B, Packard) presoaked with 0.3% polyethylenimine and rinsed several times with ice cold wash buffer (50 mM Tris-HCl, pH 7.4) using a 96-sample cell harvester (Unifilter, Packard). The filters were dried and then counted for radioactivity in a scintillation counter (Topcounter, Packard) using a scintillation cocktail (Microscint-0, Packard).

human 5-HT2CR = human 5-HT2CR (Homo sapiens, UniProt P28335); assay: [125I]DOI competition binding assay
Description: as §1

[1] = LogP / log D determination, 1-octanol/phosphate buffer; format: physicochemical
Description: LogP Log D log D log D log D log D log D log D
Phosphate buffer (PB) with the pH ranging from 1.8 to 12.0 and Octanol saturated with water was used. 2 μL of 10 mM DMSO stock solution of test and control compounds was aliquoted into tubes in duplicate. Added 149 μL of PB (pH 1.8, 2.5, 4.5, 7.4, 9.5,11.0 and 12.0)-Saturated […]
was added, respectively. Each of the tubes was vigorously mixed for 2 minutes and then shook for 1 hour at a speed of 800 rpm at room temperature. Following centrifugation at 4000 rpm for 5 minutes at room temperature, appropriate volume of buffer layer samples and 1-octanol layer samples was aliquoted. These samples were diluted and detected by using LC -MS/MS method without running a calibration curve.
The log D values were calculated with the following equation:
(also on this page, place not known: temperature , 1 -octanol Log Doctanol/buffer = log( Mean Octanol Layer Peak Area Ratio ∗ Octanol Layer Dilution Factor Mean Buffer Layer Peak Area Ratio ∗ Buffer Layer Dilution Factor) […]
(1 picture or pasted object on this page, not shown here)

5-HT1A = biological target: T2, 5-HT1A (Homo sapiens, UniProt P08908); assay: radioligand competition binding, [3H]8-OH-DPAT
T2 construct: Eurofins
T2 sequence (P08908 1-422): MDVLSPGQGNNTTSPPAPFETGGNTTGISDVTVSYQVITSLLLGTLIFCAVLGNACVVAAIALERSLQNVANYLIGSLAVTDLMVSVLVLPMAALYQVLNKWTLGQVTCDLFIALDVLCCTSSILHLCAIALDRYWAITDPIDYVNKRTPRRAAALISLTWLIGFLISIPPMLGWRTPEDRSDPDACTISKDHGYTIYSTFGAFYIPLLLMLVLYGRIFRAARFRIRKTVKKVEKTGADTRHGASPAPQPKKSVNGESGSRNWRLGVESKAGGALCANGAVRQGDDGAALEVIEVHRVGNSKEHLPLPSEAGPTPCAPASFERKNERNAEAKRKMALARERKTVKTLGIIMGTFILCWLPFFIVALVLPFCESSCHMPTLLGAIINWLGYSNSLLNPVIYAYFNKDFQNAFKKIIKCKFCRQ

β2 (adrenergic receptor) = biological target: T3, β2 (adrenergic receptor) (Homo sapiens, UniProt P07550); assay: radioligand competition binding, [3H](-)CGP 12177
T3 construct: Eurofins

[2] = biological target: T4, D4.4 (dopaminergic receptor) (Homo sapiens, UniProt P21917); assay: radioligand competition binding, [3H]methyl-spiperone; conditions: read-out: % inhibition of the specific radioligand binding
T4 construct: Eurofins

M5 (muscarinic receptor) = biological target: T5, M5 (muscarinic receptor) (Homo sapiens, UniProt P08912); assay: radioligand competition binding, [3H]4-DAMP
T5 construct: Eurofins
T5 sequence (P08912 1-532): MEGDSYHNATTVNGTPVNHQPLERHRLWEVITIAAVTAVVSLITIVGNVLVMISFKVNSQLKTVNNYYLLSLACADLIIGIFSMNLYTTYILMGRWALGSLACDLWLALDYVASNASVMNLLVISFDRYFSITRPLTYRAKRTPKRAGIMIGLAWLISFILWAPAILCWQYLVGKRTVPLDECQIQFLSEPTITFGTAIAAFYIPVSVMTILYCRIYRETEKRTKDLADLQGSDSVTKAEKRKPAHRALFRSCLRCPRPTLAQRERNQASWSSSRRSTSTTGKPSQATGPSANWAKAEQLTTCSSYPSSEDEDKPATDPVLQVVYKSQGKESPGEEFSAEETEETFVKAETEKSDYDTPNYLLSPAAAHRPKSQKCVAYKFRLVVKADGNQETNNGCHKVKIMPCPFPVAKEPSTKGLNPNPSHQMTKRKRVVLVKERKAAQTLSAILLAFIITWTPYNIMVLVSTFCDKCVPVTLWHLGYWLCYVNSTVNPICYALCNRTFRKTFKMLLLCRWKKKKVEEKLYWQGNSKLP

NET = biological target: T6, NET (Homo sapiens, UniProt P23975); assay: radioligand competition binding, [3H]nisoxetine
T6 construct: Eurofins

Bradykinin receptor B1 = biological target: T7, Bradykinin receptor B1 (Homo sapiens, UniProt P46663); assay: radioligand competition binding, [3H](Des-Arg10, Leu9)-Kallidin
T7 construct: Eurofins

Bradykinin receptor B2 = biological target: T8, Bradykinin receptor B2 (Homo sapiens, UniProt P30411); assay: radioligand competition binding, [3H]Bradykinin
T8 construct: Eurofins

Ca2+ Channel N-Type = Ca2+ Channel N-Type (Rattus norvegicus, UniProt Q02294); assay: biochemical; format: binding
Estrogen receptor ERα = biological target: T9, Estrogen receptor ERα (Homo sapiens, UniProt P03372); assay: radioligand competition binding, [3H]Estradiol
T9 construct: Eurofins

Glucocorticoid receptor = biological target: T10, Glucocorticoid receptor (Homo sapiens, UniProt P04150); assay: radioligand competition binding, [3H]Dexamethasone
T10 construct: Eurofins

[3] = biological target: T11, Neuropeptide Y receptor Y2 (Homo sapiens, UniProt P49146); assay: radioligand competition binding, [125I]Peptide YY
T11 construct: Eurofins

Phorbol ester = assay: radioligand competition binding, [3H]PDBu; set-up: species or system mouse
[4] = biological target: T12, Platelet Activating Factor Receptor (Homo sapiens, UniProt P25105); assay: radioligand competition binding, [3H]PAF
T12 construct: Eurofins

[5] = estimated from the % inhibition data
[6] = read-out: % inhibition of the specific radioligand binding

T3 sequence (P07550 whole entry): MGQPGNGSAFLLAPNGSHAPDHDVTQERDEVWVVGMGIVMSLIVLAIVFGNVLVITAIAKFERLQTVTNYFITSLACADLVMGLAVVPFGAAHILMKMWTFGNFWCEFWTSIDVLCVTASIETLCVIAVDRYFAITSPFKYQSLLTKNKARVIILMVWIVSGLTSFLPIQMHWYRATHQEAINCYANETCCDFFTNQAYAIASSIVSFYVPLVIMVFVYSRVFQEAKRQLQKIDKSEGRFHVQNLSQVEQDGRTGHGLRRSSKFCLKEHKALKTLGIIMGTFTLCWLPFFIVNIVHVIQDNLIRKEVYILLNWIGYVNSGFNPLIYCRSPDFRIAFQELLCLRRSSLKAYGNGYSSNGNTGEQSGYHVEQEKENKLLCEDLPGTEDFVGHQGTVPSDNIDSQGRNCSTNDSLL
T10 sequence (P04150 whole entry): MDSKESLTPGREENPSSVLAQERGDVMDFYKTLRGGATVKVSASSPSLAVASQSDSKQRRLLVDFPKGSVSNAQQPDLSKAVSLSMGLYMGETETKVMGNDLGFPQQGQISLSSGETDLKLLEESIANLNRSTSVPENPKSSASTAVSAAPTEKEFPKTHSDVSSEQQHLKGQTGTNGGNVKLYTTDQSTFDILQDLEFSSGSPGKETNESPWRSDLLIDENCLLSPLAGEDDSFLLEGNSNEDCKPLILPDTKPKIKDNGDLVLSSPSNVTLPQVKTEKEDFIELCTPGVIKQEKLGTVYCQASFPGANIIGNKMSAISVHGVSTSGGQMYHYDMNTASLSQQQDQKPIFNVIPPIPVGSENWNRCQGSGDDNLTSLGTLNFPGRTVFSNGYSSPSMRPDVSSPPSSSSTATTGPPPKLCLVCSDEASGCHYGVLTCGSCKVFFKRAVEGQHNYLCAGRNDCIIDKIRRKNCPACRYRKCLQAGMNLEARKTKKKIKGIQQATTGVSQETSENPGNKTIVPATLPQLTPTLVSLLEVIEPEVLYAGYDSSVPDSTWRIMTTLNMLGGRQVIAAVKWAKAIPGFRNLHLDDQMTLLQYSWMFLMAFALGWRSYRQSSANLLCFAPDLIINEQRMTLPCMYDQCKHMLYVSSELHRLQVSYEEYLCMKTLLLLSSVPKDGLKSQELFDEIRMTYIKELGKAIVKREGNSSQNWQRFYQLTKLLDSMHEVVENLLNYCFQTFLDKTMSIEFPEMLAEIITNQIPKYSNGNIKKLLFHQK
T12 sequence (P25105 whole entry): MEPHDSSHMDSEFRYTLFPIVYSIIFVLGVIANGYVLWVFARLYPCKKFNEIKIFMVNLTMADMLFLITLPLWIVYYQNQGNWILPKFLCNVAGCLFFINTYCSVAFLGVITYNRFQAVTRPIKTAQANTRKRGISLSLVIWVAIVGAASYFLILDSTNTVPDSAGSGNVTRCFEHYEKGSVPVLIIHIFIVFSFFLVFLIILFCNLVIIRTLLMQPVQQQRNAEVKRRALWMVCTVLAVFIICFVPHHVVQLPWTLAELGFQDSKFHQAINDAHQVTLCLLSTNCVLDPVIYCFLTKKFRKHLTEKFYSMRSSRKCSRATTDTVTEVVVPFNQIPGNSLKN
T6 sequence (P23975 whole entry): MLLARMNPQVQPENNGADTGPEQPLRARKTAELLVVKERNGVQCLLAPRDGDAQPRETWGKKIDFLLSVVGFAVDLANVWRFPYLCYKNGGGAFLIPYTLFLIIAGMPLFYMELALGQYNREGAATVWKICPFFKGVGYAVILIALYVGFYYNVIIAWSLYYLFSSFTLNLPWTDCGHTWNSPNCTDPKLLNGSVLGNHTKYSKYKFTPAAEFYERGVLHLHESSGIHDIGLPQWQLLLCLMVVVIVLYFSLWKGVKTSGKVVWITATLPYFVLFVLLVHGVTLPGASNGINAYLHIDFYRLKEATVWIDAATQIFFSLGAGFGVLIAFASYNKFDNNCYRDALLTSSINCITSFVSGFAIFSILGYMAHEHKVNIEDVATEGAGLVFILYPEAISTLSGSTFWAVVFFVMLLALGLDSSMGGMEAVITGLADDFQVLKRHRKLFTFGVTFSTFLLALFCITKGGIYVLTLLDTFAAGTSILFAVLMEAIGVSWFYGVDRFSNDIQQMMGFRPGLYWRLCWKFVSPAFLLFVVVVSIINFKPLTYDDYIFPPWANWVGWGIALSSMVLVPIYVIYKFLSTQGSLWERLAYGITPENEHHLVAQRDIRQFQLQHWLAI
T8 sequence (P30411 whole entry): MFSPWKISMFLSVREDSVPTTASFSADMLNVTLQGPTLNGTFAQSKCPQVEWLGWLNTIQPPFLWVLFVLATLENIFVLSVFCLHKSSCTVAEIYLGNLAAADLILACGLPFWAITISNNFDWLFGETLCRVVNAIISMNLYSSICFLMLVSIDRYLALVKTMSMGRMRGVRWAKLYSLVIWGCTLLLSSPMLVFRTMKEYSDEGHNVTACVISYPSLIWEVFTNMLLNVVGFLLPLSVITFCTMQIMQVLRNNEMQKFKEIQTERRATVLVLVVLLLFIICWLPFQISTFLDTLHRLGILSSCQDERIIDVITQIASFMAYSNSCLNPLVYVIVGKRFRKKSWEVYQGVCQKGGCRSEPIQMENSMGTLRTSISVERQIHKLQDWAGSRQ
T1 sequence (P41595 whole entry): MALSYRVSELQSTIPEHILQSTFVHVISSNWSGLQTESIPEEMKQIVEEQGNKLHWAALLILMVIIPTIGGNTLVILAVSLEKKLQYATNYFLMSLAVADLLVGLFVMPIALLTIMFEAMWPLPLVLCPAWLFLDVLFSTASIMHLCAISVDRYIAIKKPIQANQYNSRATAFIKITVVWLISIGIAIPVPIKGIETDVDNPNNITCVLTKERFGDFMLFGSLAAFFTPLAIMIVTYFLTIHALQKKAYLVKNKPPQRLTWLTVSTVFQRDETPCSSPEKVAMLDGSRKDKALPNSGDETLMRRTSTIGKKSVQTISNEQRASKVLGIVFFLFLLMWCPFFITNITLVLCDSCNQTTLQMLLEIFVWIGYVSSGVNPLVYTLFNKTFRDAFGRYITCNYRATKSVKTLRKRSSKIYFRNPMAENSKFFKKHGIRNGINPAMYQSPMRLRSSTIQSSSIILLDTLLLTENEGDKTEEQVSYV
T9 sequence (P03372 whole entry): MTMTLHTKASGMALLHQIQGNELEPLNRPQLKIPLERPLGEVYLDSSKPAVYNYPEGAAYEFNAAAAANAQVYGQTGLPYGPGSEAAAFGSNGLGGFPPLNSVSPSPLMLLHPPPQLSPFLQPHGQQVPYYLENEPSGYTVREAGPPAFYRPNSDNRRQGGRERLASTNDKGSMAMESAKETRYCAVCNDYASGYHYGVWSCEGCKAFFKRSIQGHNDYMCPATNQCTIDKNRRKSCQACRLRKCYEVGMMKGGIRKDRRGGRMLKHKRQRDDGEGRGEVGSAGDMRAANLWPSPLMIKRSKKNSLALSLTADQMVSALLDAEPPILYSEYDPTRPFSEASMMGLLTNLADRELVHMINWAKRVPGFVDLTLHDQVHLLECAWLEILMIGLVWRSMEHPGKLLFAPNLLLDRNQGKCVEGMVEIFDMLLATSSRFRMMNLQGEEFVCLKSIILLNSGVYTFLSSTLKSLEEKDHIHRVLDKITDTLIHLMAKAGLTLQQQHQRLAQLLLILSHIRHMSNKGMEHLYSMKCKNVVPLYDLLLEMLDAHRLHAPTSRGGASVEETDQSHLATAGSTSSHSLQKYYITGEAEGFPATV
T11 sequence (P49146 whole entry): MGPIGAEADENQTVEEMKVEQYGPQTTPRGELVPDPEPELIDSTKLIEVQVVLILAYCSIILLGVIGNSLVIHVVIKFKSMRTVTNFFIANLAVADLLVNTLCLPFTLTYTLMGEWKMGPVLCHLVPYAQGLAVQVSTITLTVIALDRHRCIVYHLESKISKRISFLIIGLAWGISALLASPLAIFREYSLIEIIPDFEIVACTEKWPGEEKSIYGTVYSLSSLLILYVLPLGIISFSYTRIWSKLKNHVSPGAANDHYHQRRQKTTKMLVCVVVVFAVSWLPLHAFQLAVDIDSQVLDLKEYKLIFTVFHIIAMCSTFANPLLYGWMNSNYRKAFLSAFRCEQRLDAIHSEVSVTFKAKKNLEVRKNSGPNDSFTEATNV
T7 sequence (P46663 whole entry): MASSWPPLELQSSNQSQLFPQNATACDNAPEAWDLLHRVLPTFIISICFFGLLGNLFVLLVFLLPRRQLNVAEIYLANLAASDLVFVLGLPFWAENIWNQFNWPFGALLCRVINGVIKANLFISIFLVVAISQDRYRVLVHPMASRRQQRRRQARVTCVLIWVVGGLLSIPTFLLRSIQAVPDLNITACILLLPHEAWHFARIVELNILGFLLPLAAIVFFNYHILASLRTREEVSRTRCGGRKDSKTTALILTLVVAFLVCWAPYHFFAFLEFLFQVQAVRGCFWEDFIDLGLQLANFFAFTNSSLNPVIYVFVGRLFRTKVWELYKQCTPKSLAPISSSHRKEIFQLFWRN
human 5-HT2CR, sequence (P28335 33-458): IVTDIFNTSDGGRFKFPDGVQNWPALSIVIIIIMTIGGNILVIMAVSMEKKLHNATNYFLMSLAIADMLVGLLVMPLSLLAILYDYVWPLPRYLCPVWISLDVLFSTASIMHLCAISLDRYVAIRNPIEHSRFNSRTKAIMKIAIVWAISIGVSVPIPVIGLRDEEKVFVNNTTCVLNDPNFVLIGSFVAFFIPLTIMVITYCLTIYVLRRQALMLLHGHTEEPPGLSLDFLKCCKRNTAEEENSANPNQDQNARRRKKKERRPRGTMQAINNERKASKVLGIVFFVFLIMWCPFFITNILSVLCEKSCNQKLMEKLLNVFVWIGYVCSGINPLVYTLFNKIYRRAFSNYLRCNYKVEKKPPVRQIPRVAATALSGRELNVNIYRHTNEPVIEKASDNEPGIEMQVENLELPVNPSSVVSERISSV

With `COc1cc(C(F)(F)F)c(OC)cc1[C@@H]1CCCNC1` [(S)-11, 3-(2,5-Dimethoxy-4-(trifluoromethyl)phenyl)piperidine Hydrochloride] the “5-HT2BR pKi ± S.E.M.” value (human 5-HT2BR; Table S3) was 7.88 ± 0.07, the Ki (human 5-HT2BR; read-out: Ki at 5-HT2BR) was 0.013 µM and the “5-HT2CR pKi ± S.E.M.” value (human 5-HT2CR; Table S3) was 7.89 ± 0.10. For the same molecule, the Ki (human 5-HT2CR; read-out: Ki at 5-HT2CR) was 0.013 µM, the logP at 1 h ([1]; main text and Figure 6) was 3.45 and the logD ([1]; pH 1.8, read-out: Log D (pH 1.8)) was -0.815. The logD ([1]; pH 2.5, read-out: log D (pH2.5)) was -0.536, the logD ([1]; pH 4.5, read-out: log D (pH4.5)) was -0.376 and the logD ([1]; pH 7.4, read-out: log D (pH7.4)) was 0.659. It also gave a logD ([1]; pH 9.5, read-out: log D (pH9.5)) of 1.99, a logD ([1]; pH 11.0, read-out: log D (pH11.0)) of 3.4 and a logD ([1]; pH 12.0, read-out: log D (pH12.0)) of 3.5. The IC50 (5-HT1A; [5]) was 0.1 to 1 µM, the inhibition at 0.1 µM (5-HT1A; [6]) was 20% and the inhibition at 1 µM (5-HT1A; [6]) was 64%. It also gave an inhibition at 10 µM (5-HT1A; [6]) of 90%, an IC50 (β2 (adrenergic receptor); [5]) of about 10 µM and an inhibition at 1 µM (β2 (adrenergic receptor); [6]) of 2%. It also gave an inhibition at 10 µM (β2 (adrenergic receptor); [6]) of 55%, an inhibition at 10 µM [2] of 9% and an IC50 (M5 (muscarinic receptor); [5]) of about 1 µM. The inhibition at 0.1 µM (M5 (muscarinic receptor); [6]) was 9%, the inhibition at 1 µM (M5 (muscarinic receptor); [6]) was 57% and the inhibition at 10 µM (M5 (muscarinic receptor); [6]) was 92%. The IC50 (NET; [5]) was over 10 µM, the inhibition at 10 µM (NET; [6]) was -4% and the IC50 (Bradykinin receptor B1; [5]) was over 10 µM. It also gave an inhibition at 10 µM (Bradykinin receptor B1; [6]) of 12%, an IC50 (Bradykinin receptor B2; [5]) of over 10 µM and an inhibition at 10 µM (Bradykinin receptor B2; [6]) of 18%. For the same molecule, the IC50 (Ca2+ Channel N-Type) was over 10 µM, the inhibition at 10 µM (Ca2+ Channel N-Type; [6]) was -5% and the IC50 (Estrogen receptor ERα; [5]) was over 10 µM. For the same molecule, the inhibition at 10 µM (Estrogen receptor ERα; [6]) was -2%, the IC50 (Glucocorticoid receptor; [5]) was over 10 µM and the inhibition at 10 µM (Glucocorticoid receptor; [6]) was 11%. The IC50 [3, 5] was over 10 µM, the inhibition at 10 µM [3, 6] was 3% and the “% inhibition of the specific radioligand binding” value (Phorbol ester; (S)-11 10 μM, n=1) was 15%. The IC50 (Phorbol ester; [5]) was over 10 µM, the IC50 [4, 5] was over 10 µM and the inhibition at 10 µM [4, 6] was -11%.
